Where two headings read alike, the source gives them in different places.
Assays:
[1] = target: T1, CaV1.2 (coexpressed with β2/α2δ1) (Homo sapiens, UniProt Q13936); test: automated patch clamp (SyncroPatch […]PE); format: cell-based; conditions: read-out: CaV1.2 peak
T1 construct: gene CACNA1C; stably expressed in CHO cells with beta2 and alpha2delta1; with Voltage-dependent L-type calcium channel subunit beta-2; Voltage-dependent calcium channel subunit alpha-2/delta-1

HCN4 = target: T2, HCN4 (Homo sapiens, UniProt Q9Y3Q4); test: automated patch clamp (SyncroPatch […]PE); format: cell-based
T2 construct: stably expressed in HEK 293 cells; If current; homotetramer
T2 sequence (Q9Y3Q4 1-1203): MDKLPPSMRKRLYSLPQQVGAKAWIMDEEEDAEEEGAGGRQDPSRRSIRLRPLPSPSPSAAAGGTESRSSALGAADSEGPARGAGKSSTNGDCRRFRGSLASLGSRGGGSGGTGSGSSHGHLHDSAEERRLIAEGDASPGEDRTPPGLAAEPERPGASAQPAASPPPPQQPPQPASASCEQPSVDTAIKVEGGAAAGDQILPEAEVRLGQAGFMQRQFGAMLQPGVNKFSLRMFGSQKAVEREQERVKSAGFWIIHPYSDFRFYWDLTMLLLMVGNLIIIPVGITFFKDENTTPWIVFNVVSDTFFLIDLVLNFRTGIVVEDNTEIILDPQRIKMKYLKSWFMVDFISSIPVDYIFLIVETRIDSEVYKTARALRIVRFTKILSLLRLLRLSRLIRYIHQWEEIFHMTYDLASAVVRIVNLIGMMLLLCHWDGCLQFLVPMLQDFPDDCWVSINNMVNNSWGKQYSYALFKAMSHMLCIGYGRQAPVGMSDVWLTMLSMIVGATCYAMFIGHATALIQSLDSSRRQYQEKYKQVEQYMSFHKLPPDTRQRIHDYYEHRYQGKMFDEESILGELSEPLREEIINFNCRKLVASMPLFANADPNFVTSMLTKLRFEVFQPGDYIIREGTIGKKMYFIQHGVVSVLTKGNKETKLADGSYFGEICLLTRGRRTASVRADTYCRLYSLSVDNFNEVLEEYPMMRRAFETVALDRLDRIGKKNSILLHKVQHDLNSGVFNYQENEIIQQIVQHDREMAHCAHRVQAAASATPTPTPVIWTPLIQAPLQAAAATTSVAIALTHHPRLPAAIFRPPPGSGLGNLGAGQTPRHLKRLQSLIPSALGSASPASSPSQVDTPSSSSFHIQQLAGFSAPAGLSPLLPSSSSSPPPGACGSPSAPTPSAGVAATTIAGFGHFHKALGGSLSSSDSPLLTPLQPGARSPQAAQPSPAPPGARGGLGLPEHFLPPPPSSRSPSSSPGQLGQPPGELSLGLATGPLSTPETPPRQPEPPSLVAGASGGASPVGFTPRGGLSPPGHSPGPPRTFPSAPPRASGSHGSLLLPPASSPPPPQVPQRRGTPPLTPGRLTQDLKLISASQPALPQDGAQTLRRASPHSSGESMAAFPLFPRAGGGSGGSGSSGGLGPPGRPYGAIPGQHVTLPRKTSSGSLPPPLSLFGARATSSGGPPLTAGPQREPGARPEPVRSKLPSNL

KV7.1/minK = target: T3, KV7.1/minK (Homo sapiens, UniProt P51787); test: automated patch clamp (SyncroPatch […]PE); format: cell-based
T3 construct: gene KCNQ1; stably expressed in CHO cells; IKs current

Kir2.1 = target: T4, Kir2.1 (Homo sapiens, UniProt P63252); test: automated patch clamp (QPatch); format: cell-based
T4 construct: gene KCNJ2; stably expressed in CHO cells; IK1 current; homotetramer
T4 sequence (P63252 1-427): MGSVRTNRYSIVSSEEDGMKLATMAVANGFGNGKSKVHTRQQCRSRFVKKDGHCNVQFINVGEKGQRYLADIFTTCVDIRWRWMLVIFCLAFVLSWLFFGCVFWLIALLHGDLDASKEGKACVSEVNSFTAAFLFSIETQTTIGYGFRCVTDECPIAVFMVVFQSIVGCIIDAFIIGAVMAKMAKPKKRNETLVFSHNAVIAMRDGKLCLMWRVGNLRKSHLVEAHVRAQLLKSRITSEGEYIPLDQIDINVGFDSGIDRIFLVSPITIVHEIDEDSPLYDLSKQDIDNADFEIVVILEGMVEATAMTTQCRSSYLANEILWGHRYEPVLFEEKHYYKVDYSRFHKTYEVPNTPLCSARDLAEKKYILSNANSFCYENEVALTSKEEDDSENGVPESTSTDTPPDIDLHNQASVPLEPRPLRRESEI
From the text: automated patch clamp (QPatch) on Kir2.1

NaV1.5 = target: T5, NaV1.5 (Homo sapiens, UniProt Q14524); test: automated patch clamp (SyncroPatch […]PE); format: cell-based; conditions: read-out: NaV1.5 peak
T5 construct: gene SCN5A; stably expressed in CHO cells; no beta subunit mentioned

hERG = target: T6, hERG (Homo sapiens, UniProt Q12809); test: automated patch clamp (SyncroPatch […]PE); format: cell-based
T6 construct: gene KCNH2; stably expressed in CHO cells; IKr current; homotetramer
T6 sequence (Q12809 whole entry): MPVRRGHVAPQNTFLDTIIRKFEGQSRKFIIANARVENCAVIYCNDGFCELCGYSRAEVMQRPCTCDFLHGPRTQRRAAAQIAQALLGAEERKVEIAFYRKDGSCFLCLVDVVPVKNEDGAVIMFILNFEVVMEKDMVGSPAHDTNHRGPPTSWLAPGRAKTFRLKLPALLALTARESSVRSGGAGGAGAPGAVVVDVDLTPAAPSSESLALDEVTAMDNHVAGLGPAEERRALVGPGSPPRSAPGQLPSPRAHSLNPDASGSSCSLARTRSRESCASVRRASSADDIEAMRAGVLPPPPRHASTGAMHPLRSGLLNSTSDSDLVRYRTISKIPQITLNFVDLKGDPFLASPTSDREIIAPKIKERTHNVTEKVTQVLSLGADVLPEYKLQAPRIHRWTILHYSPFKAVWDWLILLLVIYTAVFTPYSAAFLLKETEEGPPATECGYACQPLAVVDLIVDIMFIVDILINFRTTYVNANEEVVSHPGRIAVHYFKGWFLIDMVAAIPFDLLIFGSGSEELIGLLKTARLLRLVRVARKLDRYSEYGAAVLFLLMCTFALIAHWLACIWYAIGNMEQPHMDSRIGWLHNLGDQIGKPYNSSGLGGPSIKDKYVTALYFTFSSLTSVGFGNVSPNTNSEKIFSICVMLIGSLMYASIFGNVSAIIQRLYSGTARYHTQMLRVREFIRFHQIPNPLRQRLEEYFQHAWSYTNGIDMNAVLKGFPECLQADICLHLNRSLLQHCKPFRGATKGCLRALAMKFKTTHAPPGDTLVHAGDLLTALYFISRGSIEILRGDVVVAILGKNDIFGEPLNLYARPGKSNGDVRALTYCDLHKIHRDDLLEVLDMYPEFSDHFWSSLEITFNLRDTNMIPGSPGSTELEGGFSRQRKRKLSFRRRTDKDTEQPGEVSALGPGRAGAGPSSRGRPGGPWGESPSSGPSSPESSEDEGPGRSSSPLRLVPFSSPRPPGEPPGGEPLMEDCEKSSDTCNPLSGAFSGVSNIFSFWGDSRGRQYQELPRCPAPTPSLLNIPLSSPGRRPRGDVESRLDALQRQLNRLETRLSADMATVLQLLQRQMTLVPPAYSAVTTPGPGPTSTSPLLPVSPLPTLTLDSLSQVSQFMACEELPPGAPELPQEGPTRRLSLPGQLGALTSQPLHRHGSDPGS

[2] = automated patch clamp (SyncroPatch […]PE); format: cell-based, Homo sapiens; conditions: read-out: CaV1.2 ramp
[3] = automated patch clamp (SyncroPatch […]PE); format: cell-based, Homo sapiens; conditions: read-out: CaV1.2 ramp; remark: listed apart in the source

T1 sequence (Q13936 whole entry): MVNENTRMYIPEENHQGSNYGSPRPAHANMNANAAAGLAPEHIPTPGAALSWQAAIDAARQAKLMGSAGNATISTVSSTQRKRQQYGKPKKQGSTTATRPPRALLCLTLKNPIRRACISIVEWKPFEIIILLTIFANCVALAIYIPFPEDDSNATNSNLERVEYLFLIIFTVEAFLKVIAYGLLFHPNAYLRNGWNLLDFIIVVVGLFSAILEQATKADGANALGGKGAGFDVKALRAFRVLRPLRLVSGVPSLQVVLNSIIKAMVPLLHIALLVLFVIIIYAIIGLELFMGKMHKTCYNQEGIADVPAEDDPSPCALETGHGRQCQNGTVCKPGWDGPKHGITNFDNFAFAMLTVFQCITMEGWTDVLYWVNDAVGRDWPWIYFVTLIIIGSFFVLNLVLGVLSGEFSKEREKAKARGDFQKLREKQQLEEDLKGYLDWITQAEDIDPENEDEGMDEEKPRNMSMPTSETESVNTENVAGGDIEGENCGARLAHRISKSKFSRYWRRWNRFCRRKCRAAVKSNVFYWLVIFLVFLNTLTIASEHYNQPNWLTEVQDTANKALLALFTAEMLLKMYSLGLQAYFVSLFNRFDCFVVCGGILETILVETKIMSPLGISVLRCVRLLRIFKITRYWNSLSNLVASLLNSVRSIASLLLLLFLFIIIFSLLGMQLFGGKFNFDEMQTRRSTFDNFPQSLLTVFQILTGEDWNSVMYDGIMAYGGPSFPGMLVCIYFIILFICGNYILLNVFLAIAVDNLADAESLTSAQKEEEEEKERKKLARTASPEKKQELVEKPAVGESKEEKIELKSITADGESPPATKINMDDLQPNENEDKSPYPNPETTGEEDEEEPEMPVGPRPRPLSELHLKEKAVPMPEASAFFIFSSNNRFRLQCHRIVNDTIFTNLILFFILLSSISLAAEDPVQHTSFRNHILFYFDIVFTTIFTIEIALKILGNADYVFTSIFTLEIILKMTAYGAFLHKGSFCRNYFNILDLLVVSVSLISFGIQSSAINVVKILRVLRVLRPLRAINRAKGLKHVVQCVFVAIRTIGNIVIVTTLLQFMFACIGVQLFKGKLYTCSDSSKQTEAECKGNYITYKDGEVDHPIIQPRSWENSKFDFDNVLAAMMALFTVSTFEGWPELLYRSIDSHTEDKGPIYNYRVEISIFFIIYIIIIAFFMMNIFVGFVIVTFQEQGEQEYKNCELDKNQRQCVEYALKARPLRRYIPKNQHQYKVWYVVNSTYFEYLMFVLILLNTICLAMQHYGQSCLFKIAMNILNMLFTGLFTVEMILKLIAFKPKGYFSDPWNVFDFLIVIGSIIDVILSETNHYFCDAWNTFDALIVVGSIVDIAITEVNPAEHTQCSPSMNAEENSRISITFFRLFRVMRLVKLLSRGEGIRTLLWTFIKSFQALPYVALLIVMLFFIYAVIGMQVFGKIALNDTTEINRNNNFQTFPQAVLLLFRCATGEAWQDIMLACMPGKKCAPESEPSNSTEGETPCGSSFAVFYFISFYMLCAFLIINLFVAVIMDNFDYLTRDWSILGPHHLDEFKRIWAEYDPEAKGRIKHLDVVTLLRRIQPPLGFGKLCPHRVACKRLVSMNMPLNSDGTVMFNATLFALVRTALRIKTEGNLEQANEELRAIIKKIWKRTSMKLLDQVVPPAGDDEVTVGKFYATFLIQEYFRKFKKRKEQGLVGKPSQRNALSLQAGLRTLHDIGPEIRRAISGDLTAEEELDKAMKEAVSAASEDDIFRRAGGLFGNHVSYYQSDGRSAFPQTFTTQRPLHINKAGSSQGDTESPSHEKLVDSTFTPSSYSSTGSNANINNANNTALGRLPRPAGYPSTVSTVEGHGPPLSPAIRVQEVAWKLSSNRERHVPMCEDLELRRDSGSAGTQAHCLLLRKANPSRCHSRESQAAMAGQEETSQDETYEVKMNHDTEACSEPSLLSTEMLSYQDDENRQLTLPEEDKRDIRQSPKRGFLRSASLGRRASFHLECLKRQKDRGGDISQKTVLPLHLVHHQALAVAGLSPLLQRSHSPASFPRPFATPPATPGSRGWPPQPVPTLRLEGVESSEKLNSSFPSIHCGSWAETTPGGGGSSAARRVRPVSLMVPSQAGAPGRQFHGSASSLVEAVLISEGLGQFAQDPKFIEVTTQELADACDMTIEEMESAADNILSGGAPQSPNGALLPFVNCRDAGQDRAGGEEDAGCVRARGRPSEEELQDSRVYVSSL
T1 sequence (Q08289 whole entry partner): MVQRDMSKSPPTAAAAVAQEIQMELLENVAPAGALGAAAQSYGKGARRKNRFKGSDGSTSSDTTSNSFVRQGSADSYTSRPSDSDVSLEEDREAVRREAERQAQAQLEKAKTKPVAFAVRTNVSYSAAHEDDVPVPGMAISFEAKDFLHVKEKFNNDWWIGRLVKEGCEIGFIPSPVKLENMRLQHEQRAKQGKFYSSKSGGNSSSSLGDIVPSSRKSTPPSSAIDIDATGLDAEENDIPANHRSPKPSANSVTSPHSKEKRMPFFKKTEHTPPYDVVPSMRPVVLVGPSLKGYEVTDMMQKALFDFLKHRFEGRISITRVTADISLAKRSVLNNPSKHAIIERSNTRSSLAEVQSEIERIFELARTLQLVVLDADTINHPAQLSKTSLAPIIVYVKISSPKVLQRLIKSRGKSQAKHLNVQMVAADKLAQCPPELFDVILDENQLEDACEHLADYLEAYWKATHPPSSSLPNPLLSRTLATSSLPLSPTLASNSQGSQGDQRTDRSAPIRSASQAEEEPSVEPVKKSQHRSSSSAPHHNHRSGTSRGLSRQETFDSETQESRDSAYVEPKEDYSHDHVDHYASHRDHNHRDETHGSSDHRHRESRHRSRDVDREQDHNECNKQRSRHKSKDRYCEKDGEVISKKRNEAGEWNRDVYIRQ
T1 sequence (P54289 25-956 partner): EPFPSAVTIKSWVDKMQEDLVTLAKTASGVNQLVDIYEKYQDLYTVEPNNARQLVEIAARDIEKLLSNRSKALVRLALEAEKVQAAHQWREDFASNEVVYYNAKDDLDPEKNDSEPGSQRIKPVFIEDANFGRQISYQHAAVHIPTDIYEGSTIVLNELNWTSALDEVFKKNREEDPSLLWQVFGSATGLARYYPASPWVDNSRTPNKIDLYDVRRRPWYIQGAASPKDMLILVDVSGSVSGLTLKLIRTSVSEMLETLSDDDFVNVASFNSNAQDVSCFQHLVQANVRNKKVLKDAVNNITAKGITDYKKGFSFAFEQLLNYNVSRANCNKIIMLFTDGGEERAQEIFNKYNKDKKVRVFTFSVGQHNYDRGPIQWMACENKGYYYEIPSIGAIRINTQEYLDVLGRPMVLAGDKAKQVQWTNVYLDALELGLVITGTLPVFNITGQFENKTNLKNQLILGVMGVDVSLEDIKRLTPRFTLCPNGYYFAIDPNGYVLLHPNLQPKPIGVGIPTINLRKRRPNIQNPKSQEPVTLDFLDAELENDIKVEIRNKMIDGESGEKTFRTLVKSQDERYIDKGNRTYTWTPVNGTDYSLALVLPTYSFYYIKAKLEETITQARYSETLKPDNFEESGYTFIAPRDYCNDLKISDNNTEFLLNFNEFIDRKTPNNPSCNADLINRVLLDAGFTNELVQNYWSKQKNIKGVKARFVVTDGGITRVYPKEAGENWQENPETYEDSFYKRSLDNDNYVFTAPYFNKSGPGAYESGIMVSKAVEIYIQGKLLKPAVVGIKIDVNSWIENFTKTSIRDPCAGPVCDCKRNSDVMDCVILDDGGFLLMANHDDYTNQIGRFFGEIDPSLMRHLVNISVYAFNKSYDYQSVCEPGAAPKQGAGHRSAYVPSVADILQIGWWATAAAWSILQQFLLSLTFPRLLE
T1 sequence (P54289 957-1103 partner): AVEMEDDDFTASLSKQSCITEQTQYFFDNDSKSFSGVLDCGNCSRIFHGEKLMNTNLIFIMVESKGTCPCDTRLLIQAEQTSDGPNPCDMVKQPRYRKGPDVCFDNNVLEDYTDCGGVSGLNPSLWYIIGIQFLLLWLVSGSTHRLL

Structure (SMILES)	IC50 [1] [µM]	IC50 (HCN4; read-out: NaV1.5 late) [µM]	IC50 (KV7.1/minK; read-out: NaV1.5 late) [µM]	IC50 (Kir2.1; read-out: NaV1.5 late) [µM]	IC50 (NaV1.5) [µM]	IC50 (hERG) [µM]	IC50 (HCN4; read-out: NaV1.5 peak) [µM]	IC50 (KV7.1/minK; read-out: NaV1.5 peak) [µM]	IC50 [2] [µM]	IC50 [3] [µM]	IC50 (Kir2.1; read-out: NaV1.5 peak) [µM]	IC50 (HCN4; read-out: HCN4) [µM]	IC50 (Kir2.1; read-out: Kir2.1) [µM]
CC[C@H]1OC(=O)[C@H](C)[C@@H](O[C@H]2C[C@@](C)(OC)[C@@H](O)[C@H](C)O2)[C@H](C)[C@@H](O[C@@H]2O[C@H](C)C[C@H](N(C)C)[C@H]2O)[C@](C)(O)C[C@@H](C)CN(C)[C@H](C)[C@@H](O)[C@]1(C)O [azithromycin]	771	> 1000	> 1000	> 1000	612	439							
CC[C@H]1OC(=O)[C@H](C)[C@@H](O[C@H]2C[C@@](C)(OC)[C@@H](O)[C@H](C)O2)[C@H](C)[C@@H](O[C@@H]2O[C@H](C)C[C@H](N(C)C)[C@H]2O)[C@](C)(O)C[C@@H](C)C(=O)[C@H](C)[C@@H](O)[C@]1(C)O [erythromycin]							> 1000	> 1000					
CCN(CCO)CCCC(C)Nc1ccnc2cc(Cl)ccc12 (stereo not shown) [hydroxychloroquine]	23.9				17	2.66			> 300	> 300	44.2		
CCN(CC)CCCC(C)Nc1ccnc2cc(Cl)ccc12 (stereo not shown) [chloroquine]	17.9				13.9					> 300		96.2	4.98

Reference: publication PMC8014548, “Applying the CiPA approach to evaluate cardiac proarrhythmia risk of some antimalarials used off‐label in the first wave of COVID‐19” (Clinical and Translational Science, 2021)
